Assay [1] deals with A2780 human ovarian carcinoma cells. Kind of assay: Cytotoxicity, sulphorodamine B test, A2780. Particulars: 72 h, cell survival, read-out: A2780 IC50 ± SD. Format: cell-based. The protocol: (§1) Cytotoxicity of the Conjugates on Different Tumor Cell Lines
(§2) To evaluate the effect of the compound on cell survival, the sulphorodamine B test was used. PC3 human prostate carcinoma, A498 human renal carcinoma, A2780 human ovarian carcinoma cells were used. A2780 and PC3 tumor cells were grown RPMI 1640 containing 10% fetal bovine serum (GIBCO), whereas A498 tumor cells were grown in EMEM containing 10% fetal bovine serum (GIBCO).
(§3) Tumor cells were seeded in 96-well tissue culture plates (Corning) at approximately 10% of confluence and were allowed to attach and recover for at least 24 h. […] The plates were incubated for 72 h at 37° C. At the end of the treatment, the plates were washed by remotion of the surnatant and addition of PBS 3 times. 200 μl PBS and 50 μl of cold 80% TCA were added. The plates were incubated on ice for at least 1 h. TCA was removed, the plates were washed 3 times for immersion in distilled-water and dried on paper and at 40° C. for 5 min. Then 200 μl of 0.4% sulphorodamine B in 1% acetic acid were added. The plates were incubated at room temperature for other 30 min. Sulphorodamine B was removed, the plates were washed for immersion in 1% acetic acid for 3 times, then they were dried on paper and at 40° C. for 5 min. Then 200 μl Tris 10 mM were added, the plates were kept under stirring for 20 min. The survival cell was determined as optical density by a Multiskan spectrofluorimeter at 540 nm. The amount of cells killed was calculated as the percentage decrease in sulphorodamine B binding compared with control cultures. The IC50 values were calculated with the “ALLFIT” program.

Assay [2] relates to A498 human renal carcinoma. Nature of the assay: Cytotoxicity, sulphorodamine B test, A498. Format: cell-based. Particulars: A498 cells, 72 h, cell survival; read-out: A498 IC50 ± SD. As for the experimental part: as §1, §2, §3
Assay [3] addresses T1, purified αvβ5 receptor (Homo sapiens, UniProt P06756+P18084).
T1 construct: purchased Chemicon CC1020
Nature of the assay: Binding to integrin αvβ5 receptors ([125I]echistatin competition). The protocol: Binding to Integrin αvβ5 Receptors
(§4) An aliquot of 100 μl was added to 96-well plates and incubated overnight at +4° C. Plates were washed once with buffer (50 mM Tris, pH 7.4, 100 mM NaCl, 2 mM CaCl2, 1 mM MgCl2, 1 mM MnCl2, 1% bovine serum albumin) and then incubated for another 2 hours at room temperature. Plates were washed twice with the same buffer and incubated for 3 hours at room temperature with the radioactive ligand [^125I]echistatin (Amersham Pharmacia Biotech) 0.15 nM in the presence of competition ligands. At the end of incubation, the wells were washed and the radioactivity determined using a gamma counter (Packard). Non-specific ligand binding was determined in the presence of excess cold echistatin (1 μM).
(§5) Evaluation of IC50 Parameters
(§6) The IC50 parameter was elaborated using “ALLFIT” software.

Assay [4] concerns the target T2, purified αvβ3 receptor (Homo sapiens, UniProt P05106+P06756).
T2 construct: purchased Chemicon CC1020
Kind of assay: Binding to integrin αvβ3 receptors ([125I]echistatin competition). The protocol:
Binding to Integrin αvβ3 Receptors
as §4, with “7,4,” for “7.4,”, “0.05” for “0.15”, “Non-specific binding of the” for “Non-specific”, “ligand” for “ligand binding”
as §5, §6

Assay [5] relates to PC3 human prostate carcinoma. Kind of assay: Cytotoxicity, sulphorodamine B test, PC3. The format is cell-based. Conditions: PC3 cells, 72 h, cell survival; read-out: PC3 IC50 ± SD. As for the experimental part:
as §1, §2, §3

Values joined by “and” are separate entries in the source; they are usually repeats but may differ in a detail not shown here. Equal entries are not always repeated. Where two headings read alike, the source gives them in different places.

Usually IC50 stands for the concentration at which inhibition is half-maximal.

Consider `CC[C@@]1(O)C(=O)OCc2c1cc1n(c2=O)Cc2c-1nc1ccccc1c2/C=N\OCCNC(=O)CCC[C@@H]1NC(=O)[C@@H](Cc2ccccc2)NC(=O)[C@H](CC(=O)O)NC(=O)CNC(=O)[C@H](CCCNC(=N)N)NC1=O` [ST2686], for which the IC50 in assay [1] was 400 ± 30 nM; in assay [2], 3200 nM; in assay [3] (inhibition of specific [125I]echistatin 0.15 nM binding, 3 hours at room temperature, read-out: αvβ5 IC50 ± SD), 0.37 ± 0.01 nM; in assay [4] (inhibition of specific [125I]echistatin 0.05 nM binding, 3 hours at room temperature, read-out: αvβ3 IC50 ± SD), 0.59 ± 0.01 nM; in assay [5], 15000 ± 1500 nM.
As for `CC[C@@]1(O)C(=O)OCc2c1cc1n(c2=O)Cc2c-1nc1ccccc1c2/C=N\OCCNC(=O)COCCOCCOCC(=O)NCc1ccc(C[C@@H]2NC(=O)[C@@H](Cc3ccccc3)NC(=O)[C@H](CC(=O)O)NC(=O)CNC(=O)[C@H](CCCNC(=N)N)NC2=O)cc1` [ST2742], the concentration for half-maximal inhibition (IC50) in assay [1] was 180 ± 10 nM; in assay [2] it was 740 nM and 700 nM; in assay [3], 6.5 ± 0.03 nM; in assay [4] it was 12.5 ± 2.1 nM; in assay [5], 27000 ± 3900 nM.
On to `CC[C@@]1(O)C(=O)OCc2c1cc1n(c2=O)Cc2c-1nc1ccccc1c2/C=N\OCCNC(=O)CCC(=O)NCc1ccc(C[C@@H]2NC(=O)[C@@H](Cc3ccccc3)NC(=O)[C@H](CC(=O)O)NC(=O)CNC(=O)[C@H](CCCNC(=N)N)NC2=O)cc1` [ST2724], for which the concentration for half-maximal inhibition (IC50) is 160 ± 1 nM in assay [1]; 4300 nM in assay [2]; 8.39 ± 0.07 nM in assay [3]; 7.27 ± 0.06 nM in assay [4]; 4700 ± 400 nM in assay [5].

(Values after patent US7705012B2, “Camptothecins conjugated in position 7 to cyclic peptides as cytostatic agents” (priority 2004, dated 2010).)
